Data taken from the supplement of paper PMC11451515.

Test system: SEM cells
Assay: cell viability relative to DMSO control; higher = less cytotoxic
Conditions: 48 h
In short: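 In 1536-well plates, 5 μl of leukemia cells were seeded per well: 500 cells/well for NOMO1 or SEM and 1000 cells/well for P12-Ichikawa. Each line had first been adapted for at least four passages in each medium. Library compounds in DMSO were pin-dosed at 11 threefold concentrations between 47 μM and 0.79 nM, and CellTiter-Glo One luminescence was read after 48 h at 37°C. Viability is a per-plate percentage relative to DMSO wells, with cell-free wells as background.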

[1] = HPLM + 10% dialyzed FBS, 0.000781 µM
[2] = HPLM + 10% dialyzed FBS, 0.00234 µM
[3] = HPLM + 10% dialyzed FBS, 0.00702 µM
[4] = HPLM + 10% dialyzed FBS, 0.0211 µM
[5] = HPLM + 10% dialyzed FBS, 0.0632 µM
[6] = HPLM + 10% dialyzed FBS, 0.19 µM
[7] = HPLM + 10% dialyzed FBS, 0.569 µM
[8] = HPLM + 10% dialyzed FBS, 1.71 µM
[9] = HPLM + 10% dialyzed FBS, 5.12 µM
[10] = HPLM + 10% dialyzed FBS, 15.4 µM
[11] = HPLM + 10% dialyzed FBS, 46.1 µM
[12] = RPMI 5 mM glucose + 10% FBS, 0.000781 µM
[13] = RPMI 5 mM glucose + 10% FBS, 0.00234 µM
[14] = RPMI 5 mM glucose + 10% FBS, 0.00702 µM
[15] = RPMI 5 mM glucose + 10% FBS, 0.0211 µM
[16] = RPMI 5 mM glucose + 10% FBS, 0.0632 µM
[17] = RPMI 5 mM glucose + 10% FBS, 0.19 µM
[18] = RPMI 5 mM glucose + 10% FBS, 0.569 µM
[19] = RPMI 5 mM glucose + 10% FBS, 1.71 µM
[20] = RPMI 5 mM glucose + 10% FBS, 5.12 µM
[21] = RPMI 5 mM glucose + 10% FBS, 15.4 µM
[22] = RPMI 5 mM glucose + 10% FBS, 46.1 µM
[23] = RPMI 5 mM glucose + 10% dialyzed FBS, 0.000781 µM
[24] = RPMI 5 mM glucose + 10% dialyzed FBS, 0.00234 µM
[25] = RPMI 5 mM glucose + 10% dialyzed FBS, 0.00702 µM
[26] = RPMI 5 mM glucose + 10% dialyzed FBS, 0.0211 µM
[27] = RPMI 5 mM glucose + 10% dialyzed FBS, 0.0632 µM
[28] = RPMI 5 mM glucose + 10% dialyzed FBS, 0.19 µM
[29] = RPMI 5 mM glucose + 10% dialyzed FBS, 0.569 µM
[30] = RPMI 5 mM glucose + 10% dialyzed FBS, 1.71 µM
[31] = RPMI 5 mM glucose + 10% dialyzed FBS, 5.12 µM
[32] = RPMI 5 mM glucose + 10% dialyzed FBS, 15.4 µM
[33] = RPMI 5 mM glucose + 10% dialyzed FBS, 46.1 µM

SMILES	cell viability [1] [%]	cell viability [2] [%]	cell viability [3] [%]	cell viability [4] [%]	cell viability [5] [%]	cell viability [6] [%]	cell viability [7] [%]	cell viability [8] [%]	cell viability [9] [%]	cell viability [10] [%]	cell viability [11] [%]	cell viability [12] [%]	cell viability [13] [%]	cell viability [14] [%]	cell viability [15] [%]	cell viability [16] [%]	cell viability [17] [%]	cell viability [18] [%]	cell viability [19] [%]	cell viability [20] [%]	cell viability [21] [%]	cell viability [22] [%]	cell viability [23] [%]	cell viability [24] [%]	cell viability [25] [%]	cell viability [26] [%]	cell viability [27] [%]	cell viability [28] [%]	cell viability [29] [%]	cell viability [30] [%]	cell viability [31] [%]	cell viability [32] [%]	cell viability [33] [%]
Cc1ccnc(N[S+](=O)([O-])c2ccc(NC(=O)Nc3ccc([S+](=O)([O-])Nc4nccc(C)n4)cc3)cc2)n1	77.9	90.3	89.8	90.1	86.8	38.8	35.6	10.6	8.5	7.84	6.37	86.6	73.1	79.4	75.2	64.8	9.99	8.62	6.14	6.29	5.29	3.81	77.8	86.7	87.7	85.8	77.5	21.9	19.7	8.34	8.01	7.59	5.43
CC/C(=C(\c1ccccc1)c1ccc(OCCN(C)C)cc1)c1ccccc1	80.9	97.6	107	103	74.6	102	94	108	96.3	86.2	16.8	98.1	99.7	95.8	93.8	66.7	95	99.2	99.9	90.5	91.6	12.5	87.4	87.2	102	95.2	81.7	115	99.4	96.3	95.2	93.9	13
COc1c(C)c2c(c(O)c1C/C=C(\C)CCC(=O)OCCN1CCOCC1)C(=O)OC2	107	110	99.8	117	105	121	92.8	106	64.6	39.2	26.2	102	113	107	115	116	116	101	95.8	60.7	38.7	26	110	110	101	111	104	117	107	124	86.4	56	32.6
Cc1ccccc1C(C(=O)NC1CCCC1)N(C(=O)Cn1cnc2ccccc21)c1cccc(F)c1 (stereo not drawn)	133	114	119	113	112	113	124	119	108	111	80.9	120	126	121	128	127	122	126	122	122	112	83	119	107	128	125	137	119	120	113	126	118	84.9
CC(C)C[C@@H](C(=O)N[C@H](C(=O)OC1CCCC1)c1ccccc1)[C@H](O)C(=O)NO	125	119	123	136	120	122	117	89.2	105	104	38												113	113	111	114	102	106	101	72.8	83.4	65.9	23.2
CC1(C)CCC(=C(\C1)C2=CC=C(Cl)C=C2)/CN3CCN(CC3)C4=CC(=C(C=C4)C(=O)N[S+]([O-])(=O)C5=CC=C(NCC6CCOCC6)C(=C5)[N+]([O-])=O)OC7=CN=C8[NH]C=CC8=C7	104	95.1	99.3	62.7	43.7	12.6	8.25	7.7	7.49	7.18	5.72	124	105	123	76.2	70	20.3	11.1	7.11	6.79	5.86	4.71	102	90.8	88.3	53.8	38	16.5	8.07	6.59	6.67	5.3	4.75
O=C(O)c1nn(Cc2ccc(Cl)cc2Cl)c2ccccc12	93.5	90.1	95.5	96.3	86.5	54.8	68.7	92.3	84.7	76.2	54.7	124	123	132	130	93.3	83.6	86.2	135	95.2	94.7	81	96.1	89.9	89.1	77.2	76.3	46.9	69	97.5	70.1	92.7	59.6
O=P1(NCCCl)OCCCN1CCCl (stereo not drawn)	88.9	85.6	92.8	101	76.1	81.2	78	84.7	81.3	63	12.5	92.6	99.5	101	103	96.8	94.4	97.1	94.2	105	57.3	7.96	87.6	86	94.8	81.9	65.5	69.1	60.6	69.5	66.4	45	10.8
O=C1N\N=C(\C[C@@H]2CCN(C2)C(=O)C3CC3)N1C4=CC=C(C=C4)C5=CC=C6OC=CC6=C5	77.5	76.9	80.2	85.4	70.8	61.7	78.5	71.3	77.8	37.1	45.6	109	116	120	107	113	76.7	110	97.1	125	64.3	51.9	73.3	65	79.9	84.3	81.5	56.5	80.1	82.3	96.6	46.5	31.7
COc1ccccc1N1CCN(CC(O)COc2cccc3ccccc23)CC1 (stereo not drawn)	62.9	116	124	131	136	119	111	108	121	109	88.8																						
Oc1ccc(-c2nc(-c3ccncc3)c(-c3ccc(F)cc3)[nH]2)cc1	83.4	90.6	102	107	104	69.1	42.4	45.4	7.43	2.46	0.872	105	86.9	89.5	93.6	76.1	54.7	34.9	30.3	1.32	0.723	0.55	114	99.9	104	98.8	83	48.4	41.3	32.8	5.58	1.19	0.981
Cc1ccc(Nc2nccc(N(C)c3ccc4c(C)n(C)nc4c3)n2)cc1[S+](N)(=O)[O-]	83.9	89	88	105	98.2	91.7	91.3	91	75.3	61.3	18.1	87.2	92.9	95.7	109	86.3	91.6	77.5	79.6	63	38.9	7.79	95.9	83	99.7	105	92.3	101	90.2	81.8	57.5	49.2	14.8
COc1cc([C@@H]2c3cc4c(cc3[C@@H](O[C@@H]3O[C@@H]5CO[C@@H](C)O[C@H]5[C@H](O)[C@H]3O)[C@H]3COC(=O)[C@H]23)OCO4)cc(OC)c1O	82.6	71.6	81.1	74.9	50.7	52.7	49.2	16.1	8.68	3.97	2.91	99.8	96.1	91.8	70.1	46.4	59.6	45.1	10.9	10.3	3.77	3.27	70.3	76	76.1	64.1	37	35.8	34.8	8.52	5.58	3.22	2.28
NCC/1=C/NC(=S)N1[C@H]2CCC3=C(F)C=C(F)C=C3C2	102	107	110	109	93.3	102	105	120	99.5	94.5	43.8	118	122	123	119	112	114	120	115	115	108	15.4											
CCC[S+](=O)([O-])Nc1ccc(F)c(C(=O)c2c[nH]c3ncc(-c4ccc(Cl)cc4)cc23)c1F	115	123	122	115	119	124	134	123	131	115	104	105	126	120	99.5	127	126	128	121	128	119	107	113	98.5	113	121	125	120	128	113	134	122	109
CCc1nc(C(N)=O)c(Nc2ccc(N3CCC(N4CCN(C)CC4)CC3)c(OC)c2)nc1NC1CCOCC1	92.9	105	120	104	95.5	65	42.9	36.3	21.1	17.8	14.6												115	97.9	138	139	94	69.6	43	33.1	17	18.3	12.2
